The text below walks through data of patent US12404232B2, “Compounds and compositions for intracellular delivery of therapeutic agents” (ModernaTX, Inc., priority 2015, dated 2025).

Data set [1] in a line: Particle size and polydispersity index of nanoparticle compositions (Zetasizer Nano ZS). Particulars: for PDI: nanoparticle composition 50:10:38.5:1.5 mol % (Table 1A); for Size (nm): nanoparticle composition lipid:DSPC:cholesterol:PEG-DMG 50:10:38.5:1.5 mol %, mRNA encoding Luc or hEPO (Table 1A). Format: physicochemical. The text has this: Nanoparticle compositions may be characterized by a variety of methods. For example, microscopy (e.g., transmission electron microscopy or scanning electron microscopy) may be used to examine the morphology and size distribution of a nanoparticle composition. Dynamic light scattering or potentiometry (e.g., potentiometric titrations) may be used to measure zeta potentials. Dynamic light scattering may also be utilized to determine particle sizes. Instruments such as the Zetasizer Nano ZS (Malvern Instruments Ltd, Malvern, Worcestershire, UK) may also be used to measure multiple characteristics of a nanoparticle composition, such as particle size, polydispersity index, and zeta potential.
A Zetasizer Nano ZS (Malvern Instruments Ltd, Malvern, Worcestershire, UK) can be used to determine the particle size, the polydispersity index (PDI) and the zeta potential of the nanoparticle compositions in 1×PBS in determining particle size and 15 mM PBS in determining zeta potential.
Initial studies were performed to compare the delivery efficiency of nanoparticle compositions including various compounds according to Formula (I), (IA), (II), (IIa), (IIb), (IIc), (IId) or (IIe). The cationic lipid MC3 is a current standard in the art. Accordingly, the standard MC3 formulation including about 50 mol % MC3, about 10 mol % DSPC, about 38.5 mol % cholesterol, and about 1.5 mol % PEG-DMG was used as a basis for this study. Nanoparticle compositions including DSPC as a phospholipid, cholesterol as a structural lipid, PEG-DMG as a PEG lipid, an RNA, and a compound according to Formula (I), (IA), (II), (IIa), (IIb), (IIc), (IId) or (IIe) selected from Compounds 1-159, 168-170, and 173-175 were prepared according to or via methods similar to those described in Examples 1 and 2. The ratios of the lipids were 50:10:38.5:1.5 mol % for the lipid according to Formula (I), (IA), (II), (IIa), (IIb), (IIc), (IId) or (IIe):DSPC:cholesterol:PEG-DMG. The RNA used was an mRNA encoding G5 luciferase (Luc) or G5 hEPO. Tables 1A-1B summarize the content and characteristics of the formulations. […]

Data set [2] concerns mice. The experiment in a line: Cytokine induction (IL-6, IP-10) in mice after intravenous administration. In kind it is in vivo. Further details: IL-6 / IP-10: unit not given here. The settings on record: 0.5 mpk, 6 hours. An excerpt:
The introduction of foreign material into a mammalian body induces an innate immune response that promotes cytokine production. Such immune responses to, for example, nanoparticle compositions including therapeutic and/or prophylactics, are undesirable. The induction of certain cytokines is thus measured to evaluate the […] of nanoparticle compositions. The concentrations of various cytokines in mice upon intravenous administration of nanoparticle compositions presented in Table 1A at a dosage of 0.5 mpk was measured at 6 hours. The standard MC3 formulation and a PBS control were also tested. As is evident in Table 7, IL-6 induction was highest for compositions including Compounds 1, 3, 9, 19, and 26, while IP-10 induction was highest for compositions including Compounds 3, 4, 7, 20, and 26. IL-6 induction was lowest for compositions including Compounds 4, 11, 12, and 28. IP-10 induction was lowest for compositions including Compounds 10, 11, 12, 13, 15, 17, and 18.
The expression of hEPO and cytokine induction in mice intravenously administered a nanoparticle composition at a dose of 0.5 mpk were measured at 3, 6, and 24 hours. […] The expression of hEPO in mice intramuscularly administered a nanoparticle composition from Table 1B at a dose of 0.01 mpk were measured at 3, 6, and 24 hours. […] (see also FIG. 9.)

The subject of data set [3] is mice. The experiment in a line: Luc expression (total flux) after intramuscular administration. The settings on record: 6 hours after intramuscular administration, Luc mRNA and H10 mRNA. Format: in vivo. On the procedure: The numbers 1-7 in this figure correspond to MC3, Compounds 168-170, and 173-175 respectively.
In order to monitor how effectively various nanoparticle compositions deliver therapeutic and/or prophylactics to targeted cells, different nanoparticle compositions including a particular therapeutic and/or prophylactic (for example, a modified or naturally occurring RNA such as an mRNA) are prepared and administered to rodent populations. Mice are intravenously, intramuscularly, intraarterially, or intratumorally administered a single dose including a nanoparticle composition with a formulation such as those provided in Example 3. In some instances, mice may be made to inhale doses. Dose sizes may range from 0.001 mg/kg to 10 mg/kg, where 10 mg/kg describes a dose including 10 mg of a therapeutic and/or prophylactic in a nanoparticle composition for each 1 kg of body mass of the mouse. A control composition including PBS may also be employed.
The total flux (measured by area under the curve, AUC) induced by administration of a formulation including a given lipid relative to that induced by administration of a formulation including MC3 was also measured for several lipids.
Sample formulations including both modified luciferase (Luc) mRNA and H10 mRNA were prepared and administered intramuscularly and the resulting expression and immunogenicity were evaluated simultaneously. Formulations including compounds according to Formula (I), (IA), (II), (IIa), (IIb), (IIc), (IId) or (IIe) were prepared and administered at doses of 0.001 and 0.01 mpk (e.g., doses of 0.0005 mpk of a formulation including Luc mRNA and a formulation including H10 mRNA or doses of 0.005 mpk of a formulation including Luc mRNA and a formulation including H10 mRNA).
Sample formulations including modified luciferase (Luc) mRNA prepared and administered intramuscularly and the resulting expression and immunogenicity were evaluated simultaneously. Formulations including compounds according to Formula (I), (IA), (II), (IIa), (IIb), (IIc), (IId) or (IIe) were prepared and administered at dose of […] 0.01 mpk.
The fluxes measured upon intravenous and intramuscular administration are compared in Table 6. Fluxes are presented as fold increase over that measured for MC3 formulations.

Turning to `CCCCCCCCC(CC)OC(=O)CCCN(CCO)CCCCCCCC(=O)OC(CCCCCCCC)CCCCCCCC` (centres unmarked) [Compound 72, Heptadecan-9-yl 8-((2-hydroxyethyl)(4-oxo-4-(undecan-3-yloxy)butyl)amino)octanoate], in data set [1], the PDI is on record as 0.11 and the “Size (nm)” value was 65.4 nm.
Regarding `CCCCCCCCCOC(=O)CCCCCCCN(CCCCCCCC(=O)OC(CCCCCCCC)CCCCCCCC)CCCNC(=S)NC` [Compound 113, Heptadecan-9-yl 8-((3-(3-methylthioureido)propyl)(8-(nonyloxy)-8-oxooctyl)amino)octanoate], in data set [1], the PDI is 0.15 and the “Size (nm)” value was found to be 69.2 nm.
As for `CCCCCCCCCOC(=O)CCCCCCCN(CCCCO)CCCCCCCC(=O)OC(CCCCCCCC)CCCCCCCC` [Compound 20, Heptadecan-9-yl 8-((4-hydroxybutyl)(8-(nonyloxy)-8-oxooctyl)amino) octanoate], the “Size (nm)” value in data set [1] came out at 111.5 nm. Also, the IL-6 in the data set with mice [2] is listed as 126.83.
As for `CCCCCCCCCOC(=O)CCCCCCCN(CCCCCCCC(=O)OC(CCCCCCCC)CCCCCCCC)CCCNC(=O)N(C)C` [Compound 110, Heptadecan-9-yl 8-((3-(3,3-dimethylureido)propyl)(8-(nonyloxy)-8-oxooctyl)amino)octanoate], in data set [1], the PDI worked out at 0.13 and the “Size (nm)” value was 118 nm.
Consider `CCCCCCCCCOC(=O)CCCCCCCN(CCCCCCCC(=O)OC(CCCCCCCC)CCCCCCCC)CCCNC(=O)NC` [Compound 112, Heptadecan-9-yl 8-((3-(3-methylureido)propyl)(8-(nonyloxy)-8-oxooctyl)amino)octanoate], for which, in data set [1], the PDI is recorded as 0.12 and the “Size (nm)” value was found to be 85.7 nm.
Regarding `CCCCCCCCC(CCCCCCCC)OC(=O)CCCCCCCN(CCO)CCCCCC(=O)OC(CCCCCCCC)C1CC1` (centres unmarked) [Compound 128, Heptadecan-9-yl 8-((6-((1-cyclopropylnonyl)oxy)-6-oxohexyl)(2-hydroxyethyl)amino)octanoate], in data set [1], the PDI is 0.14 and the “Size (nm)” value was 69.4 nm.
In the data set on mice [2], `CCCCCCCCCOC(=O)CCCCCCCN(CCO)CCCCCC(=O)OC(CCCCCCCC)CCCCCCCC` [Compound 27, Nonyl 8-((6-(heptadecan-9-yloxy)-6-oxohexyl)(2-hydroxyethyl)amino) octanoate] gave an IL-6 of 161.07 and an IP-10 of 345.56. For the same molecule, in the data set on mice [3], the “Total flux (p/s) 0.001 mpk Dose” value is listed as 2.55E+06 p/s and the “Total flux (p/s) 0.01 mpk Dose” value is reported as 3.17E+07 p/s.
For the molecule `CCCCCCCCCOC(=O)CCCCCCCN(CCCO)CCCCCCCC(=O)OC(CCCCCCCC)CCCCCCCC` [Compound 19, Heptadecan-9-yl 8-((3-hydroxypropyl)(8-(nonyloxy)-8-oxooctyl)amino) octanoate], in the data set with mice [2], the IP-10 turned out to be 1468.94. In addition, in the data set with mice [3], the “Total flux (p/s) 0.001 mpk Dose” value came to 3.28E+06 p/s and the “Total flux (p/s) 0.01 mpk Dose” value amounted to 2.96E+07 p/s.
With `CCCCCCCCC(CCCCCCCC)OC(=O)CCCCCCCN(CCO)CCCCCCCC(=O)OCC1CC1CCCCCC` (centres unmarked) [Compound 28, Heptadecan-9-yl 8-((8-((2-hexylcyclopropyl)methoxy)-8-oxooctyl)(2-hydroxyethyl)amino)octanoate], the IP-10 in the data set with mice [2] is recorded as 283.13. In the data set with mice [3], the “Total flux (p/s) 0.001 mpk Dose” value is recorded as 6.73E+05 p/s and the “Total flux (p/s) 0.01 mpk Dose” value stood at 5.56E+06 p/s.
For `CCCCCCCCC(CC)OC(=O)CCCCCN(CCO)CCCCCCCC(=O)OC(CCCCCCCC)CCCCCCCC` (centres unmarked) [Compound 75, Heptadecan-9-yl 8-((2-hydroxyethyl)(6-oxo-6-(undecan-3-yloxy)hexyl)amino)octanoate], in data set [1], the PDI came to 0.10 and the “Size (nm)” value is on record as 64.2 nm.
In the data set on mice [2], `CCCCCCCCCCCCN(CCO)CCCCCCCCCCCC(=O)OC` [Compound 137, Methyl 12-(dodecyl(2-hydroxyethyl)amino)dodecanoate] came in with an IL-6 of 130.82 and an IP-10 of 234.35. In the data set on mice [3], the “Total flux (p/s) 0.001 mpk Dose” value is reported as 7.57E+04 p/s and the “Total flux (p/s) 0.01 mpk Dose” value came out at 8.09E+04 p/s.
For `CCCC/C=C\CCC(CC/C=C\CCCC)OC(=O)CCCCCCCN(CCO)CCCCCC(=O)OCCCCCCCCCCC` [Compound 61, (5Z,12Z)-heptadeca-5,12-dien-9-yl 8-((2-hydroxyethyl)(6-oxo-6-(undecyloxy)hexyl)amino)octanoate], in data set [1], the PDI is 0.11 and the “Size (nm)” value turned out to be 89.1 nm.
In the case of `CCCCCCCCCOC(=O)CCCCCCCN(CCO)CCCCCCCC(=O)OCCCCCCCCC` [Compound 138, Dinonyl 8,8′-((2-hydroxyethyl)azanediyl)dioctanoate], in the data set with mice [2], the IL-6 came to 23.38 and the IP-10 is reported as 172.56. Also, in the data set with mice [3], the “Total flux (p/s) 0.001 mpk Dose” value was 2.72E+05 p/s and the “Total flux (p/s) 0.01 mpk Dose” value was 1.19E+06 p/s.
As for `CCCCCCCCC(CCCCCCCC)OC(=O)CCCCCCCN(CCO)CCCCCCCC(=O)OC(CCCCCCCC)CCCCCCCC` [Compound 29, Di(heptadecan-9-yl) 8,8′-((2-hydroxyethyl)azanediyl)dioctanoate], in the data set with mice [2], the IL-6 amounted to 69.54 and the IP-10 amounted to 1362.81. For the same molecule, in the data set with mice [3], the “Total flux (p/s) 0.001 mpk Dose” value is on record as 7.64E+05 p/s and the “Total flux (p/s) 0.01 mpk Dose” value is listed as 1.12E+07 p/s.
